Source: US20140088144A1, “INHIBITING MICROBIAL INFECTIONS” (THE UNIVERSITY OF KANSAS, priority 2012, published 2014)

Experiments:
[1] = biological target: T1, MBP-VirF (Shigella flexneri, UniProt P0A2T1); test: EMSA in vitro DNA binding by VirF (MBP-VirF); type: biochemical; details: purified MBP-VirF
T1 construct: made in house; host or cells: E. coli KS 1000, plasmid pMALvirF
Experimental: The IPTG inducible MBP-VirF expression plasmid, pMALvirF, was constructed by cloning virF downstream and in-frame with malE (encoding maltose binding protein, MBP) in the vector pMAL-c2X (New England Biolabs, Beverly, Mass.). MBP-VirF protein (referred to as VirF for simplicity) was purified using amylose affinity chromatography at 4° C. Briefly, pMALvirF was transformed into E. coli strain KS 1000 (New England Biolabs). The cells were grown to an OD600 of 0.5, transferred to 15° C., 0.1 mM IPTG was added, and then incubated overnight with shaking Cells were harvested and resuspended in 10 ml of binding buffer (20 mM Tris, 500 mM NaCl, 1 mM EDTA 1 mM DTT, pH 7.4). Cells were lysed by three freeze thaw cycles with lysozyme (0.4 mg/ml), tris (2-carboxyethyl)phosphine (TCEP, 1 mM) and phenylmethylsulfonyl fluoride (PMSF, 1 mM), at −80° C., followed by sonication and then centrifuged to remove cell debris. […]
Binding of purified VirF to a DNA fragment containing the VirF binding site at virB was analyzed by electrophoretic mobility shift assay (EMSA) (68), in the absence or presence of SE-1. […] Gels were scanned using an Odyssey infrared imager (LI-COR, Lincoln, Nebr.), and quantified using Odyssey software, version 3.0.30. […]

[2] = test system: Shigella invasion of L-929 cells; test: Shigella invasion assay (gentamycin protection) in L-929 cells; type: cell-based, S. flexneri; details: for invasion decrease relative to no inhibitor: Shigella pre-grown with SE-1
Experimental: S. flexneri ipgD^− (SME4331) and mxiH^− (SB116) mutant strains were grown overnight at 30° C. and then diluted to an OD600 of ˜0.1 into TSB plus ampicillin. SE-1 (in DMSO) was added to the cultures at final concentrations of 0, 20, or 40 μM SE-1 and 0.3% DMSO. These cultures and SB116 (no SE-1) were grown at 37° C. in 24-well plates (each with 1.2 ml), in the temperature-controlled chamber of a PowerWave XS plate reader (BioTek Instruments). Bacterial growth was continued at 37° C. with shaking and OD600 monitored every 15 min. A separate sample of SME4331 was grown at 30° C. L-929 cells (mouse fibroblasts, used previously for Shigella invasion assays) that had been grown overnight to ˜90% confluency in 24-well plates were washed 3 times with 1 ml of RPMI each (without FBS or antibiotics), and the final wash was removed by aspiration. (All L-929 incubation steps were carried out at 37° C. in a 5% CO2 humidified atmosphere.) When the OD600 of the bacterial cultures reached 1.0 (˜2.5 h), samples were diluted 100-fold in pre-warmed RPMI (without FBS or antibiotics) and then 300 μl was added to each monolayer of L-929 cells, for a multiplicity of infection of roughly 20. In a control sample, 40 μM SE-1 and bacteria grown at 37° C. without SE-1 were added at the same time to L-929 cells. The 24-well plate was centrifuged (2000×g) for 5 min at room temperature to initiate bacterial-host cell contact, incubated for 45 min at 37° C., washed three times with 1 ml RPMI containing 50 μg/ml gentamycin (or without gentamycin for the control), and incubated at 37° C. for 2 h. Cells were again washed three times with 1 ml RPMI and then lysed in 100 μl of PBS (Mediatech) containing 0.1% triton X-100 (Promega, Madison, Wis.) for 10 min at room temperature. The 100 μl lysates from the gentamycin treated and untreated L-929 cells were mixed with 400 μl TSB, and 100 μl of 1:50 and 1:250 further dilutions were plated onto TSB agar containing ampicillin. Plates were incubated overnight at 37° C. and colonies were counted. The number of colonies obtained from gentamycin treated samples was divided by the number of colonies from control samples without gentamycin and multiplied by 100 to calculate the invasion index.

T1 sequence (P0A2T1 whole entry): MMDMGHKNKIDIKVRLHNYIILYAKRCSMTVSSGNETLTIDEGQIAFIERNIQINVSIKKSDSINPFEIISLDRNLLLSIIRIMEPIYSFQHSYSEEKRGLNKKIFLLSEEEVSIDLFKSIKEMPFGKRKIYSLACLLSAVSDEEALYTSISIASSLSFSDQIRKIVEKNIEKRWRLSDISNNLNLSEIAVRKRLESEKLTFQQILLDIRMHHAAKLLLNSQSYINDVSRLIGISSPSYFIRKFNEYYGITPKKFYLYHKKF

For CCCCN1C=C(c2ccc3ccccc3n2)C(C[N+](=O)[O-])c2ccccc21 (stereo not drawn) [Compound 1, 1-butyl-4-(nitromethyl)-3-quinolin-2-yl-4H-quinoline], the “inhibition of DNA binding by VirF” value [1] was “similarly inhibits”, the “inhibition of DNA binding by VirF” value ([1]; listed as SE-1) was “fully inhibit DNA binding” and the “invasion decrease relative to no inhibitor” value ([2]; 20 μM) was 1.7 fold. For the same molecule, the “invasion when SE-1 and Shigella added at the same time to L-929 cells” value ([2]; 40 μM SE-1, Shigella grown at 37° C. without inhibitor) was “invaded to the same extent”, the “invasion decrease relative to no inhibitor” value ([2]; 40 μM) was 3 fold and the inhibition at 40 µM ([2]; Shigella, L929, read-out: maximum inhibition of invasion) was 70%.
